The values that follow come from US4546176A, “7-Carboxymethoxyphenylacetamido-3-cephem derivatives and antibacterial preparations containing the same” (Eisai Co., Ltd., priority 1982, dated 1985).

Data set [1] concerns Staph. aureus 209-P. In words: Antibacterial activities (MIC), Staph. aureus 209-P. The format is cell-based. As to conditions: Staphylococcus aureus. The text has this:
(§1) (1) Antibacterial activities (MIC):

The test system of data set [2] is Escher. coli NIHJ. In words: Antibacterial activities (MIC), Escher. coli NIHJ. The format is cell-based. As to conditions: Escherichia coli.
Excerpt: as §1

Data set [3] has as its system Kleb. pneumoniae EK-6. Briefly: Antibacterial activities (MIC), Kleb. pneumoniae EK-6. The class given is cell-based. As to conditions: Klebsiella pneumoniae, EK6.
Excerpt: as §1

Data set [4] concerns Proteus morganii EP-14. Briefly: Antibacterial activities (MIC), Proteus morganii EP-14. The class given is cell-based. As to conditions: Morganella morganii, EP14.
Excerpt: as §1

The subject of data set [5] is Pseud. aeruginosa EP-01. In words: Antibacterial activities (MIC), Pseud. aeruginosa EP-01. The following applies: Pseudomonas aeruginosa, EP01. The class given is cell-based.
Excerpt: as §1

Data set [6] concerns Ser. marcescens ES-75. Briefly: Antibacterial activities (MIC), Ser. marcescens ES-75. The class given is cell-based. As to conditions: Serratia marcescens, ES75.
Excerpt: as §1

The nature of data set [7]: Urinary excretion rate in mice. The format is in vivo, ICR male mice. As to conditions: mouse, sc, 20 mg/kg subcutaneous, urine up to 6 hours, bioassay. Here is the method: ICR male mice (body weight: 20-30 g) were used. Each compound was dissolved in an M/15 phosphate buffer (pH 7.0) and administered in an amount of 20 mg/kg by the subcutaneous route. Urine was collected up to 6 hours after the administration. The concentration of the compound was determined by the bioassey technique (the agar-well method) using Pseudomonas aeruginosa as a test microorganism. On the basis of the thus-determined concentration, its excreted amount was obtained. The urinary excretion rate was then calculated from the excreted amount based on the amount administered.

A short description of data set [8]: Solubility in water. The class given is physicochemical. As to conditions: in distilled water at 25° C.
The nature of data set [9]: Acute toxicity LD50 (mouse, oral). As to conditions: in vivo. The text has this:
The acute toxicity values [LD50 (mouse, oral)] of the following compounds were each 4 g/kg or greater;

For data set [10], the system named is Proteus vulgaris E-18. In words: Antibacterial activities (MIC), Proteus vulgaris E-18 (lactamase producing). The format is cell-based. The following applies: E18; Proteus vulgaris E-18, lactamase producing bacteria.
Excerpt: as §1
*Lactamase producing bacteria.

In brackets after ≈: the same amount, converted by molar mass.

By MIC is commonly meant the smallest concentration in the dilution series that meets the test's criterion for growth inhibition. A low value points to a more susceptible organism. The term solubility denotes the concentration that dissolves in the medium under given conditions. The term LD50 denotes the dose expected to kill half of the subjects tested.

Turning to `Cc1oc2cc(O)c(O)cc2c(=O)c1C(=O)N[C@@H](C(=O)N[C@@H]1C(=O)N2C(C(=O)O)=C(CSc3nnnn3CC(=O)O)CS[C@H]12)c1ccc(OCC(=O)O)cc1` [Example 15, Trisodium 7β-[D-2-(4-carboxymethoxyphenyl)-2-(6,7-dihydroxy-2-methyl-4-oxo-4H-1-benzopyran-3-carboxamido)acetamido]-3-(1-carboxymethyl-5-tetrazolyl)thiomethyl-3-cephem-4-carboxylate], the MIC in [1] is 100 µg/mL; in data set [2], 0.2 µg/mL; in data set [3], not above 0.05 µg/mL; in data set [4] it was 3.13 µg/mL; in data set [5], 0.2 µg/mL; in data set [6] it was 0.1 µg/mL. In addition, the dose excreted at 6 h in data set [7] came out at 32%. This compound returned a solubility in [8] not below 300 mg/mL. In addition, the LD50 in data set [9] was not below 4000 mg/kg.
With `CCn1cc(C(=O)N[C@@H](C(=O)N[C@@H]2C(=O)N3C(C(=O)[O-])=C(C[n+]4ccc(C(N)=O)cc4)CS[C@H]23)c2ccc(OCC(=O)O)cc2)c(=O)c2cc(O)c(O)cc21` [Example 53, Sodium 7β-[D-2-(4-carboxymethoxyphenyl)-2-(6,7-dihydroxy-1-ethyl-1,4-dihydro-4-oxoquinoline-3-carboxamido)acetamido]-3-(4-carbamoylpyridinium)-methyl-3-cephem-4-carboxylate], the MIC in data set [1] is 50 µg/mL; in [2], 0.4 µg/mL; in [3], not above 0.05 µg/mL; in [4], 6.25 µg/mL; in data set [5], 0.2 µg/mL; in data set [6] it was 0.8 µg/mL. In [7], this compound registered a dose excreted at 6 h of 13%. In data set [8], the solubility was not below 300 mg/mL. Besides, the LD50 in data set [9] is not below 4000 mg/kg.
For `Cc1oc2cc(O)c(O)cc2c(=O)c1C(=O)N[C@@H](C(=O)N[C@@H]1C(=O)N2C(C(=O)[O-])=C(C[n+]3ccc(CCS(=O)(=O)O)cc3)CS[C@H]12)c1ccc(OCC(=O)O)cc1` [Example 42, Disodium 7β-[D-2-(4-carboxymethoxyphenyl)-2-(6,7-dihydroxy-2-methyl-4-oxo-4H-1-benzopyran-3-carboxamido)acetamido]-3-[4-(2-sulfoethyl)-pyridinium]methyl-3-cephem-4-carboxylate], the MIC in data set [1] is 100 µg/mL; in data set [2], 0.2 µg/mL; in data set [3], not above 0.05 µg/mL; in data set [4] it was 3.13 µg/mL; in data set [5], 0.2 µg/mL; in data set [6], 0.2 µg/mL. For the same compound, in [7], the dose excreted at 6 h stood at 46%. Also, in data set [8], the solubility was not below 300 mg/mL. Besides, the 50% lethal dose (LD50) in [9] was not below 4000 mg/kg.
In turn, `Cc1oc2cc(O)c(O)cc2c(=O)c1C(=O)N[C@@H](C(=O)N[C@@H]1C(=O)N2C(C(=O)[O-])=C(C[n+]3ccc(C(N)=O)cc3)CS[C@H]12)c1ccc(OCC(=O)O)cc1` [Example 57, 7β-[D-2-(4-Carboxymethoxyphenyl)-2-(6,7-dihydroxy-2-methyl-4-oxo-4H-1-benzopyran-3-carboxamido)acetamido]-3-(4-carbamoylpyridinium)methyl-3-cephem-4-carboxylate] came in with an LD50 in data set [9] not below 4000 mg/kg.
Consider `CO[C@@]1(NC(=O)[C@H](NC(=O)c2coc3cc(O)c(O)cc3c2=O)c2ccc(OCC(=O)O)cc2)C(=O)N2C(C(=O)O)=C(COC(C)=O)CS[C@@H]21` [Example 31, 7β-[D-2-(4-Carboxymethoxyphenyl)-2-(6,7-dihydroxy-4-oxo-4H-1-benzopyran-3-carboxamido)acetamido]-7α-methoxy-3-acetoxymethyl-3-cephem-4-carboxylic acid], for which the MIC in data set [1] was 50 µg/mL (≈ 70.1 µM); in [2], 0.8 µg/mL (≈ 1.12 µM); in [3] it was not above 0.05 µg/mL; in [4] it was 6.25 µg/mL (≈ 8.76 µM); in data set [5], 0.4 µg/mL (≈ 0.561 µM); in data set [6], 0.4 µg/mL (≈ 0.561 µM). Besides, the MIC in data set [10] turned out to be 1.56 µg/mL (≈ 2.19 µM).
`Cc1oc2cc(O)c(O)cc2c(=O)c1C(=O)N[C@@H](C(=O)N[C@@H]1C(=O)N2C(C(=O)[O-])=C(C[n+]3ccc(C(=O)O)cc3)CS[C@H]12)c1ccc(OCC(=O)O)cc1` [Example 55, Disodium 7β-[D-2-(4-carboxymethoxyphenyl)-2-(6,7-dihydroxy-2-methyl-4-oxo-4H-1-benzopyran-3-carboxamido)acetamido]-3-(4-carboxypyridinium)-methyl-3-cephem-4-carboxylate]: the MIC in data set [1] was 100 µg/mL; in [2], 0.4 µg/mL; in [3] it was not above 0.05 µg/mL; in [4], 6.25 µg/mL; in data set [5], not above 0.05 µg/mL; in data set [6] it was 0.4 µg/mL. In [9], this compound displayed an LD50 not below 4000 mg/kg.
For the compound `CO[C@@]1(NC(=O)[C@H](NC(=O)c2c(C)oc3c(OC(C)=O)c(OC(C)=O)ccc3c2=O)c2ccc(OCC(=O)O)cc2)C(=O)N2C(C(=O)O)=C(CSc3nnnn3CC(=O)O)CS[C@@H]21` [Example 24, 7β-[D-2-(4-Carboxymethoxyphenyl)-2-(7,8-diacetoxy-2-methyl-4-oxo-4H-1-benzopyran-3-carboxamido)-acetamido]-7α-methoxy-3-(1-carboxymethyl-4-tetrazolyl)thiomethyl-3-cephem-4-carboxylic acid], the MIC is 100 µg/mL (≈ 110 µM) in [1]; 0.8 µg/mL (≈ 0.877 µM) in data set [2]; not above 0.05 µg/mL in data set [3]; 12.5 µg/mL (≈ 13.7 µM) in data set [4]; 0.8 µg/mL (≈ 0.877 µM) in data set [5]; 0.8 µg/mL (≈ 0.877 µM) in data set [6]. Besides, the MIC in data set [10] amounted to 3.13 µg/mL (≈ 3.43 µM).
With `Cc1oc2cc(O)c(O)cc2c(=O)c1C(=O)N[C@@H](C(=O)N[C@@H]1C(=O)N2C(C(=O)[O-])=C(C[n+]3cccc(CC(=O)O)c3)CS[C@H]12)c1ccc(OCC(=O)O)cc1` [Example 43, Disodium 7β-[D-2-(4-carboxymethoxyphenyl)-2-(6,7-dihydroxy-2-methyl-4-oxo-4H-1-benzopyran-3-carboxamido)acetamido]-3-(3-carboxymethylpyridinium)-methyl-3-cephem-4-carboxylate], the MIC was 100 µg/mL in data set [1]; 0.8 µg/mL in data set [2]; not above 0.05 µg/mL in [3]; 12.5 µg/mL in data set [4]; 0.1 µg/mL in [5]; 0.2 µg/mL in [6]. The compound also registered a dose excreted at 6 h in data set [7] of 25%. The same compound gave a solubility in [8] not below 300 mg/mL. The LD50 in data set [9] is not below 4000 mg/kg.
As to `CCn1cc(C(=O)NC(C(=O)NC2C(=O)N3C(C(=O)O)=C(CSc4nnnn4C)CSC23)c2ccc(OCC(=O)O)cc2)c(=O)c2cc(OC(C)=O)c(OC(C)=O)cc21` (stereo not drawn) [Example 11], the minimum inhibitory concentration (MIC) in data set [1] is 12.5 µg/mL (≈ 14.7 µM); in data set [2] it was 0.2 µg/mL (≈ 0.235 µM); in data set [3], not above 0.05 µg/mL; in data set [4], 0.4 µg/mL (≈ 0.47 µM); in data set [5] it was 0.1 µg/mL (≈ 0.118 µM); in data set [6] it was not above 0.05 µg/mL. In [9], this compound had an LD50 not below 4000 mg/kg.
For `CO[C@@]1(NC(=O)[C@H](NC(=O)c2c(C)oc3cc(O)c(O)cc3c2=O)c2ccc(OCC(=O)O)cc2)C(=O)N2C(C(=O)O)=C(COC(C)=O)CS[C@@H]21` [Example 33, Disodium 7β-[D-2-(4-carboxymethoxyphenyl)-2-(6,7-dihydroxy-2-methyl-4-oxo-4H-1-benzopyran-3-carboxamido)acetamido]-7α-methoxy-3-acetoxymethyl-3-cephem-4-carboxylate], the MIC is 50 µg/mL in data set [1]; 0.8 µg/mL in data set [2]; not above 0.05 µg/mL in data set [3]; 12.5 µg/mL in data set [4]; 0.2 µg/mL in [5]; 0.8 µg/mL in [6]. Moreover, inhibition of growth in data set [10] (MIC) required 1.56 µg/mL.
Turning to `CO[C@@]1(NC(=O)[C@H](NC(=O)c2c(C)oc3cc(OC(C)=O)c(OC(C)=O)cc3c2=O)c2ccc(OCC(=O)O)cc2)C(=O)N2C(C(=O)O)=C(CSc3nnnn3CC(=O)O)CS[C@@H]21` [Example 21], the MIC in data set [1] is 100 µg/mL (≈ 110 µM); in data set [2], 0.4 µg/mL (≈ 0.439 µM); in data set [3] it was not above 0.05 µg/mL; in data set [4] it was 3.13 µg/mL (≈ 3.43 µM); in data set [5], 0.2 µg/mL (≈ 0.219 µM); in data set [6], 0.1 µg/mL (≈ 0.11 µM). The lowest concentration to inhibit growth in data set [10] (MIC) was 0.4 µg/mL (≈ 0.439 µM).
As for `CO[C@@]1(NC(=O)[C@H](NC(=O)c2c(C)oc3c(O)c(O)ccc3c2=O)c2ccc(OCC(=O)O)cc2)C(=O)N2C(C(=O)O)=C(CSc3nnnn3CC(=O)O)CS[C@@H]21` [Example 28, Trisodium 7β-[D-2-(4-carboxymethoxyphenyl)-2-(7,8-dihydroxy-2-methyl-4-oxo-4H-1-benzopyran-3-carboxamido)-acetamido]-7α-methoxy-3-(1-carboxymethyl-5-tetrazolyl)-thiomethyl-3-cephem-4-carboxylate], the MIC is 100 µg/mL in data set [1]; 0.8 µg/mL in data set [2]; not above 0.05 µg/mL in [3]; 6.25 µg/mL in data set [4]; 0.8 µg/mL in [5]; 0.8 µg/mL in data set [6]. This compound yielded an MIC in [10] of 3.13 µg/mL. The compound further returned a dose excreted at 6 h in [7] of 24%.
